Experimental data as given in the NIST ThermoML archive (doi:10.1021/je7007523).
Values joined by “and” are separate entries in the source; they are usually repeats but may differ in a detail not shown here. Equal values may be shown once. Numbers after ± are expanded uncertainties.

Conditions: 313.15 K; Liquid; Ebulliometric method (Recirculating still)

Row | vapor or sublimation pressure | Structure (SMILES)
1 | 24.61 ± 0.14 kPa and 24.62 ± 0.14 kPa | C1CCCCC1 [cyclohexane]
2 | 12.33 ± 0.088 kPa and 12.33 ± 0.087 kPa | CCCCCCC [heptane]
3 | 44.95 ± 0.22 kPa | C=CCCCC [hex-1-ene]
